Among the data in patent US10669272B2, “Substituted naphthyridinone compounds useful as T cell activators” (BRISTOL-MYERS SQUIBB COMPANY, priority 2018, dated 2020) are IC50 and EC50 values, retold here.

The target of experiment [1] is T1, human DGKα (Homo sapiens, UniProt P23743).
T1 construct: TVMV protease cleavage site (C); Hexa-His (C); made in house; host or cells: Sf9 insect cells (baculovirus, Bac-to-Bac)
Put plainly: DGKα LIPGLO assay (extruded liposome substrate), in vitro DGK inhibition. Format: biochemical. The settings on record: read-out: DGKa LIPGLO IC50.

For experiment [2], the system named is Human venous whole blood. In words: Human whole blood IFN-γ assay.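 Also: blood from healthy donors exposed to compound for 1 h before stimulation with anti-CD3 and anti-CD28 at 1 µg/mL each, IFN-γ quantified in supernatant by AlphaLISA.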 It is filed as cell-based.
Procedure: Human Whole Blood IFN-γ Assay
Human venous whole blood (22.5 μL per well), obtained from healthy donors, was pre-treated with compounds for one hour at 37° C. in a humidified 95% air/5% CO2 incubator. The blood was stimulated with 2.5 μL anti-human CD3 and anti-CD28 mAb at a final concentration of 1 μg/mL each for 24 hours at 37° C. IFN-γ in the supernatants was measured using AlphLISA kit (Cat # AL217).
In experiment [3] the target is T2, human DGKζ (Homo sapiens, UniProt Q13574).
T2 construct: TVMV protease cleavage site (C); Hexa-His (C); made in house; host or cells: Sf9 insect cells (baculovirus, Bac-to-Bac)
T2 sequence (Q13574 with tags, fused parts or gaps isoform Q13574-4): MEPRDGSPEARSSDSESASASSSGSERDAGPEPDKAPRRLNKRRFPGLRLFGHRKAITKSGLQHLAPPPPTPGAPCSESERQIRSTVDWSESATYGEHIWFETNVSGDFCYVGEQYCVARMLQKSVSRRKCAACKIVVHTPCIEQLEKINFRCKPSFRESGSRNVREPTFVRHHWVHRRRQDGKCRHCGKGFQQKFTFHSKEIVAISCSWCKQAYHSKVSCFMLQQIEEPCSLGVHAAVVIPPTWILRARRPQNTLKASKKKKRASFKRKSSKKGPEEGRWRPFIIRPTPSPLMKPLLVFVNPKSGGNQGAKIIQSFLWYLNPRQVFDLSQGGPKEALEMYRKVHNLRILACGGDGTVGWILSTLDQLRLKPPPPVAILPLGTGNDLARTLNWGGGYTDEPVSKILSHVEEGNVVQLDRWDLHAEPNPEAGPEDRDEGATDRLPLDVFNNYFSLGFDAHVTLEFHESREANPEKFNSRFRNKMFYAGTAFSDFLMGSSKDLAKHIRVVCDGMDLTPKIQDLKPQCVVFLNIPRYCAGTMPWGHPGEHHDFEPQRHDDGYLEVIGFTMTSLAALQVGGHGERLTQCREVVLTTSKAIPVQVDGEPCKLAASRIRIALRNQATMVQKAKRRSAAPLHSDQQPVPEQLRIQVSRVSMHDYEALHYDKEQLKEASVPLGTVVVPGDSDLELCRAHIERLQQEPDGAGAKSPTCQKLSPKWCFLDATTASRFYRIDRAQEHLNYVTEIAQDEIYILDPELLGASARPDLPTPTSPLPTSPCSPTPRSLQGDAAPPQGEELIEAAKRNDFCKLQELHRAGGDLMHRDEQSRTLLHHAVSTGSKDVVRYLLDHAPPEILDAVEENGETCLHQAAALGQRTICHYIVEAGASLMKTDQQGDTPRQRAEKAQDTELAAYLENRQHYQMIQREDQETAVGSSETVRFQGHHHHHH
Put plainly: DGKζ LIPGLO assay (extruded liposome substrate), in vitro DGK inhibition. It is filed as biochemical. The conditions noted are these: read-out: DGKz LIPGLO IC50.

For experiment [4], the system named is naïve human CD8 T cells. In words: Human CD8 T cells IFN-γ assay.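 Also: Naïve human CD8 T cells stimulated with plate-bound anti-CD3 and soluble anti-CD28, IFN-γ in supernatant quantified by AlphaLISA and converted to pg/mL.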 Format: cell-based. The settings on record: read-out: HuCD8 INFG Normalized EC50.
Where [5] appears, read: Homo sapiens, 24 h, human whole blood, normalized to 3 μM reference compound with anti-CD3 plus anti-CD28 as 100% activation, read-out: INFg Whole Blood Normalized Agonist EC50.
Setting [6] is: Homo sapiens, T-cell, 20 h, normalized to 3 μM reference compound with anti-CD3 plus anti-CD28 as 100% activation.
Setting [7] is: human whole blood, anti-CD3 plus anti-CD28, 24 hours, 3 μM reference compound = 100% activation, read-out: INFg Whole Blood Normalized Agonist EC50.
The mark [8] stands for this setting: naïve human CD8 T cells, anti-CD3 plus anti-CD28, 3 μM reference compound = 100% activation.
Where [9] appears, read: human whole blood, normalized to 3 μM reference compound with anti-CD3 plus anti-CD28 as 100% activation, read-out: INFg Whole Blood Normalized Agonist EC50.
Setting [10] is: normalized to 3 μM reference compound with anti-CD3 plus anti-CD28 as 100% activation.

Like-named read-outs stand apart in the source and are kept apart here.

T1 sequence (P23743 with tags, fused parts or gaps): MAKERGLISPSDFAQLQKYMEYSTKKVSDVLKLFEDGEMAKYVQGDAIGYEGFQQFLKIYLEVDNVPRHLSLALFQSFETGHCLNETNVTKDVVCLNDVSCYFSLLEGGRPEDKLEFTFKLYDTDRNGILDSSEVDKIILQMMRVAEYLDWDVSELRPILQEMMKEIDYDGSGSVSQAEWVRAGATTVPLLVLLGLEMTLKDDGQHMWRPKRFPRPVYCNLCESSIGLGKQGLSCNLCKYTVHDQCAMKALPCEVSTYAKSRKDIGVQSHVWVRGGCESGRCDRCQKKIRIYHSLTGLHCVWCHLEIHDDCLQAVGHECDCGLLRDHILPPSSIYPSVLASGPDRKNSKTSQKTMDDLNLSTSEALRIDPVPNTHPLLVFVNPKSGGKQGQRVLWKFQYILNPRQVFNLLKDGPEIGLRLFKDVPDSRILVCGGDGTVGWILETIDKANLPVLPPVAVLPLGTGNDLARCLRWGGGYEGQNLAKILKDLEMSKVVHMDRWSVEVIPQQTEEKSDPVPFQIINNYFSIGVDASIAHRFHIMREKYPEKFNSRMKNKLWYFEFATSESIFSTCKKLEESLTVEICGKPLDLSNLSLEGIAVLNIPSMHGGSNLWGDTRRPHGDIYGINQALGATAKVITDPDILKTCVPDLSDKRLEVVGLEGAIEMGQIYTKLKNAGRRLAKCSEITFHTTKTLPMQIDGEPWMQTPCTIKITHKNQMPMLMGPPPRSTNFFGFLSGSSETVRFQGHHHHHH

As for `Cc1cccc(F)c1CN1C[C@H](C)N(c2cc(=O)n(C)c3ccc(C#N)nc23)C[C@H]1C` [Example 255, 8-[(2S,5R)-4-[(2-fluoro-6-methylphenyl)methyl]-2,5-dimethylpiperazin-1-yl]-5-methyl-6-oxo-5,6-dihydro-1,5-naphthyridine-2-carbonitrile], the results for the IC50 in experiment [1] (liposome (LIPGLO) assay) and in experiment [3] (liposome (LIPGLO) assay) were 770 nM and 1700 nM, respectively. Also, the EC50 in experiment [2] (setting [5]) is 3200 nM; in experiment [4] (setting [6]) it was 180 nM.
For `C[C@@H]1CN(c2cc(=O)n(C)c3ccc(C#N)nc23)[C@@H](C)CN1C(c1ccc(F)cc1)c1ccc(F)cn1` (single isomer, unassigned) [Example 194], in that order: 200 nM, 680 nM, 980 nM and 40 nM.
As to `C[C@@H]1CN(c2c(C#N)c(=O)n(C)c3ccc(C#N)nc23)CCN1C(c1cccc(Cl)c1)c1ccc(F)cn1` (stereo partly shown) [Example 927], the IC50 is 2600 nM in experiment [1] (DGKα liposome (LIPGLO) assay) and 1600 nM in experiment [3] (DGKζ liposome (LIPGLO) assay). In addition, the EC50 in experiment [2] (setting [7]) is 800 nM; in experiment [4] (Homo sapiens, T-cell, 20 h, naïve human CD8 T cells, anti-CD3 plus anti-CD28, 3 μM reference compound = 100% activation) it was 300 nM.
For the compound `C[C@@H]1CN(c2cc(=O)n(C)c3ccc(C#N)nc23)[C@@H](C)CN1C(c1ccc(F)cc1)c1nc(-c2ccc(F)cc2)no1` (single isomer, unassigned) [Example 741], the 50% inhibitory concentration (IC50) in experiment [1] (DGKα liposome (LIPGLO) assay) turned out to be 870 nM; in experiment [3] (DGKζ liposome (LIPGLO) assay) it was 1400 nM. Moreover, the EC50 came out at 210 nM in experiment [2] (Homo sapiens, 24 h, human whole blood, anti-CD3 plus anti-CD28, 24 hours, 3 μM reference compound = 100% activation, read-out: INFg Whole Blood Normalized Agonist EC50) and 3.7 nM in experiment [4] (setting [8]).
With `C[C@@H]1CN(c2cc(=O)n(C)c3ccc(C#N)nc23)[C@@H](C)CN1C(c1ccc(F)cc1)c1ncccc1F` (single isomer, unassigned) [Example 187], the IC50 came out at 180 nM in experiment [1] (liposome (LIPGLO) assay) and 1300 nM in experiment [3] (liposome (LIPGLO) assay). For the same compound, the EC50 came to 1400 nM in experiment [2] (setting [9]) and 110 nM in experiment [4] (setting [10]).
With `COC(=O)C1CN(c2c(C#N)c(=O)n(C)c3ccc(Br)nc23)CCN1C(c1ccc(F)cc1)c1ccc(F)cc1` (stereo not shown) [Example 49, Methyl 1-(bis(4-fluorophenyl)methyl)-4-(6-bromo-3-cyano-1-methyl-2-oxo-1,2-dihydro-1,5-naphthyridin-4-yl)piperazine-2-carboxylate], the IC50 in experiment [1] (liposome (LIPGLO) assay) was 25000 nM; in experiment [3] (liposome (LIPGLO) assay), 8700 nM. The EC50 in experiment [2] (setting [5]) worked out at 6300 nM; in experiment [4] (setting [6]), 490 nM.
In the case of `CCOc1cc(F)ccc1C(c1ccc(F)cc1)N1C[C@H](C)N(c2cc(=O)n(C)c3ccc(C#N)nc23)C[C@H]1C` (single isomer, unassigned) [Example 230], the half-maximal inhibitory concentration (IC50) amounted to 26000 nM in experiment [1] (liposome (LIPGLO) assay) and 490 nM in experiment [3] (liposome (LIPGLO) assay). The concentration giving a half-maximal response (EC50) in experiment [2] (setting [9]) turned out to be 5300 nM; in experiment [4] (setting [10]), 370 nM.
With `C[C@@H]1CN(c2cc(=O)n(C)c3ccc(C#N)nc23)[C@@H](C)CN1Cc1ccc(OC(F)(F)F)cc1F` [Example 243, 8-[(2S,5R)-4-{[2-fluoro-4-(trifluoromethoxy)phenyl]methyl}-2,5-dimethylpiperazin-1-yl]-5-methyl-6-oxo-5,6-dihydro-1,5-naphthyridine-2-carbonitrile], the IC50 in experiment [1] (liposome (LIPGLO) assay) worked out at 290 nM; in experiment [3] (liposome (LIPGLO) assay), 1900 nM. Besides, the results for the EC50 in experiment [2] (setting [5]) and in experiment [4] (setting [6]) were 1500 nM and 160 nM, respectively.
As for `C[C@@H]1CN(c2cc(=O)n(C)c3ccc(C#N)nc23)[C@@H](C)CN1Cc1ccc(C(F)(F)F)nc1Cl` [Example 281, 8-[(2S,5R)-4-{[2-chloro-6-(trifluoromethyl)pyridin-3-yl]methyl}-2,5-dimethylpiperazin-1-yl]-5-methyl-6-oxo-5,6-dihydro-1,5-naphthyridine-2-carbonitrile], the results for the IC50 in experiment [1] (liposome (LIPGLO) assay) and in experiment [3] (liposome (LIPGLO) assay) were 2800 nM and 4400 nM, respectively. Moreover, the EC50 in experiment [2] (setting [5]) was found to be 2700 nM; in experiment [4] (setting [6]) it was 560 nM.
`C[C@@H]1CN(c2cc(=O)n(C)c3ccc(C#N)nc23)[C@@H](C)CN1C(c1ccc(F)cc1)c1ccccn1` (single isomer, unassigned) [Example 198]: the IC50 in experiment [1] (liposome (LIPGLO) assay) was 240 nM; in experiment [3] (liposome (LIPGLO) assay), 870 nM. The EC50 in experiment [2] (setting [9]) is 590 nM; in experiment [4] (setting [10]) it was 21 nM.
For `C[C@@H]1CN(c2cc(=O)n(C)c3ccc(C#N)nc23)[C@@H](C)CN1C(c1ccccc1F)c1ccccc1F` [Example 258, 8-[(2S,5R)-4-[bis(2-fluorophenyl)methyl]-2,5-dimethylpiperazin-1-yl]-5-methyl-6-oxo-5,6-dihydro-1,5-naphthyridine-2-carbonitrile], the IC50 amounted to 240 nM in experiment [1] (liposome (LIPGLO) assay) and 820 nM in experiment [3] (liposome (LIPGLO) assay). The figures for the EC50 in experiment [2] (setting [5]) and in experiment [4] (setting [6]) were 1400 nM and 56 nM, respectively.
For `CC(C)[C@H]1CN(c2c(C#N)c(=O)n(C)c3ccc(C#N)nc23)CCN1C(c1ccc(F)cc1)c1ccc(F)cc1` [Example 12, (S)-8-(4-(bis(4-fluorophenyl)methyl)-3-isopropylpiperazin-1-yl)-5-methyl-6-oxo-5,6-dihydro-1,5-naphthyridine-2,7-dicarbonitrile], in that order: 2700 nM, 58000 nM, 13000 nM and 10000 nM.
For `C[C@@H]1CN(c2cc(=O)n(C)c3ccc(C#N)nc23)[C@@H](C)CN1Cc1cccc(C(F)(F)F)n1` [Example 278, 8-[(2S,5R)-2,5-dimethyl-4-{[6-(trifluoromethyl)pyridin-2-yl]methyl}piperazin-1-yl]-5-methyl-6-oxo-5,6-dihydro-1,5-naphthyridine-2-carbonitrile], in that order: 870 nM, 1500 nM, 3200 nM and 2200 nM.
Turning to `C[C@@H]1CN(c2c(C#N)c(=O)n(C)c3ccc(C#N)nc23)CCN1C(c1ccc(F)cc1)c1ccc(Cl)cn1` (stereo partly shown) [Example 933], the IC50 worked out at 200 nM in experiment [1] (DGKα liposome (LIPGLO) assay) and 1000 nM in experiment [3] (DGKζ liposome (LIPGLO) assay). Moreover, the concentration for a half-maximal effect (EC50) in experiment [2] (setting [7]) stood at 550 nM; in experiment [4] (setting [8]) it was 350 nM.
With `C[C@@H]1CN(c2cc(=O)n(C)c3ccc(C#N)nc23)[C@@H](C)CN1C(c1ccccc1)c1cccc(Cl)c1` (stereo partly drawn) [Example 282, 8-[(2S,5R)-4-[(3-chlorophenyl)(phenyl)methyl]-2,5-dimethylpiperazin-1-yl]-5-methyl-6-oxo-5,6-dihydro-1,5-naphthyridine-2-carbonitrile], the IC50 is 1200 nM in experiment [1] (liposome (LIPGLO) assay) and 940 nM in experiment [3] (liposome (LIPGLO) assay). The EC50 in experiment [2] (setting [5]) is 3800 nM; in experiment [4] (setting [6]) it was 69 nM.
For `C[C@@H]1CN(c2cc(=O)n(C)c3ccc(C#N)nc23)[C@@H](C)CN1C(c1ccc(F)c(F)c1)c1ccccn1` (single isomer, unassigned) [Example 375], in that order: 270 nM, 2700 nM, 330 nM and 49 nM.
As to `CCc1ccc(C(c2cccc(F)c2)N2C[C@H](C)N(c3cc(=O)n(C)c4ccc(C#N)nc34)C[C@H]2C)nc1` (single isomer, unassigned) [Example 350], the IC50 came out at 1900 nM in experiment [1] (liposome (LIPGLO) assay) and 1800 nM in experiment [3] (liposome (LIPGLO) assay). Further, the figures for the EC50 in experiment [2] (setting [9]) and in experiment [4] (setting [10]) were 850 nM and 200 nM, respectively.
Take `C[C@@H]1CN(c2cc(=O)n(C)c3ccc(C#N)nc23)[C@@H](C)CN1Cc1c(F)cccc1C(F)(F)F` [Example 254, 8-[(2S,5R)-4-{[2-fluoro-6-(trifluoromethyl)phenyl]methyl}-2,5-dimethylpiperazin-1-yl]-5-methyl-6-oxo-5,6-dihydro-1,5-naphthyridine-2-carbonitrile]: the IC50 in experiment [1] (liposome (LIPGLO) assay) was determined as 140 nM; in experiment [3] (liposome (LIPGLO) assay) it was 1600 nM. Further, the EC50 was 2200 nM in experiment [2] (setting [5]) and 210 nM in experiment [4] (setting [6]).
With `CCC(c1ccc(F)cc1F)N1C[C@H](C)N(c2cc(=O)n(C)c3ccc(C#N)nc23)C[C@H]1C` (mixture of isomers) [Example 337, 8-((2S,5R)-4-(1-(2,4-difluorophenyl)propyl)-2,5-dimethylpiperazin-1-yl)-5-methyl-6-oxo-5,6-dihydro-1,5-naphthyridine-2-carbonitrile], the EC50 in experiment [2] (Homo sapiens, human whole blood, normalized to 3 μM reference compound with anti-CD3 plus anti-CD28 as 100% activation, read-out: INFg Whole Blood Normalized Agonist EC50) came to 440 nM; in experiment [4] (setting [6]), 48 nM.
With `CCc1cc(F)ccc1C(c1ccc(Cl)cc1)N1C[C@H](C)N(c2cc(=O)n(C)c3ccc(C#N)nc23)C[C@H]1C` (single isomer, unassigned) [Example 225], the EC50 in experiment [2] (setting [9]) was determined as 7600 nM; in experiment [4] (setting [6]) it was 61 nM. Further, the IC50 in experiment [3] (liposome (LIPGLO) assay) came to 570 nM.
With `C[C@@H]1CN(c2cc(=O)n(C)c3ccc(C#N)nc23)[C@@H](C)CN1C(c1ccc(F)cc1)c1ccccc1F` (stereo partly drawn) [Example 284, 8-[(2S,5R)-4-[(2-fluorophenyl)(4-fluorophenyl)methyl]-2,5-dimethylpiperazin-1-yl]-5-methyl-6-oxo-5,6-dihydro-1,5-naphthyridine-2-carbonitrile], the 50% effective concentration (EC50) in experiment [2] (Homo sapiens, 24 h, read-out: INFg Whole Blood Normalized Agonist EC50, human whole blood, normalized to 3 μM reference compound with anti-CD3 plus anti-CD28 as 100% activation) was 780 nM; in experiment [4] (setting [6]), 36 nM.
